Results from PubChem BioAssay (NCI).
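Cells were grown in 96-well plates and exposed to each compound for 48 hours at five concentrations; endpoints were interpolated linearly between bracketing concentrations, or set to the highest concentration if not reached. TGI: concentration producing complete growth inhibition.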

Assays:
Experiment in all cases: inhibition of tumour cell growth, NCI panel, 48 h
HOP-62 NSCLC = system: HOP-62 NSCLC
RPMI-8226 leukemia = system: RPMI-8226 leukemia
SF-268 CNS = system: SF-268 CNS
XF 498 CNS = system: XF 498 CNS
KM12 colon = system: KM12 colon
SNB-75 CNS = system: SNB-75 CNS
SF-295 CNS = system: SF-295 CNS
UO-31 renal = system: UO-31 renal
U251 CNS = system: U251 CNS
SK-MEL-28 melanoma = system: SK-MEL-28 melanoma
EKVX NSCLC = system: EKVX NSCLC
SN12C renal = system: SN12C renal
LOX IMVI melanoma = system: LOX IMVI melanoma
OVCAR-3 ovarian = system: OVCAR-3 ovarian
786-0 renal = system: 786-0 renal
HCT-116 colon = system: HCT-116 colon
LXFL 529 NSCLC = system: LXFL 529 NSCLC
OVCAR-8 ovarian = system: OVCAR-8 ovarian
HCT-15 colon = system: HCT-15 colon
M14 melanoma = system: M14 melanoma
ACHN renal = system: ACHN renal
UACC-62 melanoma = system: UACC-62 melanoma
SK-OV-3 ovarian = system: SK-OV-3 ovarian
OVCAR-4 ovarian = system: OVCAR-4 ovarian
SR leukemia = system: SR leukemia
HL-60(TB) leukemia = system: HL-60(TB) leukemia
COLO 205 colon = system: COLO 205 colon
KM20L2 colon = system: KM20L2 colon
SK-MEL-2 melanoma = system: SK-MEL-2 melanoma
A498 renal = system: A498 renal
DMS 114 small cell lung = system: DMS 114 small cell lung
OVCAR-5 ovarian = system: OVCAR-5 ovarian
NCI-H23 lung = system: NCI-H23 lung
SK-MEL-5 melanoma = system: SK-MEL-5 melanoma
SW-620 colon = system: SW-620 colon
CCRF-CEM leukemia = system: CCRF-CEM leukemia
NCI-H522 lung = system: NCI-H522 lung
SNB-19 CNS = system: SNB-19 CNS
SNB-78 CNS = system: SNB-78 CNS
K-562 leukemia = system: K-562 leukemia
A549 NSCLC = system: A549 NSCLC
DMS 273 small cell lung = system: DMS 273 small cell lung
M19-MEL melanoma = system: M19-MEL melanoma
NCI-H460 lung = system: NCI-H460 lung
MALME-3M melanoma = system: MALME-3M melanoma
RXF 393 renal = system: RXF 393 renal
HT29 colon = system: HT29 colon
UACC-257 melanoma = system: UACC-257 melanoma
CAKI-1 renal = system: CAKI-1 renal
SF-539 CNS = system: SF-539 CNS
MOLT-4 leukemia = system: MOLT-4 leukemia
TK-10 renal = system: TK-10 renal
HOP-92 NSCLC = system: HOP-92 NSCLC
DLD-1 colon = system: DLD-1 colon
HCC-2998 colon = system: HCC-2998 colon
IGROV1 ovarian = system: IGROV1 ovarian
NCI-H226 lung = system: NCI-H226 lung

Measured: TGI

CC(=O)OCC(OC(C)=O)C(OC(C)=O)C(OC(C)=O)C(=O)CNn1c(-c2ccc(C)cc2)nc2ccccc2c1=O (centres undefined)
not listed: TK-10 renal | HOP-92 NSCLC | DLD-1 colon | HCC-2998 colon | IGROV1 ovarian | NCI-H226 lung
> 100 µM: all other assays above

CCNc1cnc2c(n1)c(=O)n(C)c(=O)n2C
not listed: LOX IMVI melanoma | 786-0 renal | SR leukemia | SNB-78 CNS | NCI-H226 lung
> 100 µM: all other assays above

CC(C)NC(C)C(C)c1ccccc1 (centres undefined)
not listed: HCT-15 colon | SR leukemia | HL-60(TB) leukemia | OVCAR-5 ovarian | SNB-78 CNS | HOP-92 NSCLC
> 100 µM: all other assays above
